According to patent US20230392180A1, “MICROSCOPIC IMAGING AND ANALYSES OF EPIGENETIC LANDSCAPE” (Sanford Burnham Prebys Medical Discovery Institute, priority 2020, published 2023):
“Also recorded” adds a separate entry of the source. Blank lines part the entries; values can stand above or below the molecule they belong to.

What was measured:
C57BL/6J male mice = assay: miBioAge (MIEL-CLOCK) after doxorubicin injection; format: in vivo
Description: This can be shown by employing classical treatments such as doxorubicin (DOX), paclitaxel (PTX), or temozolomide (TMZ), known to promote hallmarks of aging to compare miBioAge readouts in blood (PBMC and CD3+ cells) and liver hepatocytes to chronologically matched untreated controls. Blood was collected on day 0 (retro-orbital) from 3-month old C57BL/6J male mice and 22-month old C57BL/6J male mice. On day 1, doxorubicin was injected into the experimental mice. All controls received PBS injection. Blood was collected on day 20 (retro-orbital) from all mice and liver hepatocytes on day 21. Cells were analyzed 21 days after treatment to avoid the effects of acute stress response and favor the aging-related phenomena.

[1] = Variance of chromatin and epigenetic landscape (VITA) score; format: in vivo, mice; settings: after treatment
Description: In some instances, in addition to computing the values of individual cell nucelli in multidimensional space of statistical texture features, coefficient of variance (CV) is used, defined as the ratio of the standard deviation a sigma to the mean p, namely. CV for each field of view, well, technical replicate, and biological replicate such organs tissues and cells from individual mice could be computed based on individual nuclei and the results are stable using 200-2000 nuclei per experimental replica (e.g., individual wells). […] This means that quantitatively CV can be informative values serving as a quantitative measurement of individual organ, tissue, or cell type from individual animals.

[2] = female, human
GBM2 cells [3] = assay: Epigenetic Drug Screening (MIEL); format: cell-based, human
Text: Data processing: The image features-based profile for each cell population (e.g., cell types, treatments, technical repetition) was represented using a vector (center of distribution vectors) in which every element is the average value of all cells in that population for a particular feature. The vector's length is given by the number of features chosen (262 per histone modification). Raw feature values were normalized by z-scoring to the average and standard deviation of all populations being compared. All cells in each population were used to calculate center vectors, and each population contained at least 50 cells. Activity level for each drug was determined by calculating the distance from DMSO. […] Euclidean distance of each compound and each DMSO replicate to the DMSO center vector was calculated. Distances were z-scored to the average distance and standard deviation of DMSO replicates from the DMSO center vector. Transcriptomic-based profile for each cell population was represented using a vector in which every element is the z-scored FPKM value for a single gene in that population. […] Raw feature values for all center vectors of all populations in each plate were normalized to the plate-wise DMSO vector; normalized feature values were z-scored as above. […] Activity levels were calculated as above. […] Cell counts were z-scored against the average and standard deviation of all DMSO replicates. […]

H3K27ac and H3K27me3 = H3K27ac and H3K27me3 immunofluorescence intensity; format: cell-based, human; settings: GBM2, low concentrations (<30 μM), compared with Pan HDAC inhibitors TSA, SAHA
GBM2 cells [4] = assay: RNAseq and transcriptomic analysis; format: cell-based, human
Description: RNAseq and transcriptomic analysis: Total RNA was isolated from GBM2 cells using the RNeasy Kit (Qiagen), 0.5 ug total RNA was used for isolation of mRNAs and library preparation. Library preparation and sequencing was conducted by the SBP genomics core (Sanford-Burnham NCI Cancer Center Support Grant P30 CA030199). PolyA RNA was isolated using the NEBNext® Poly(A) mRNA Magnetic Isolation Module and barcoded libraries were made using the NEBNext® Ultra II™ Directional RNA Library Prep Kit for Illumina® (NEB, Ipswich MA). Libraries were pooled and single end sequenced (1X75) on the Illumina NextSeq 500 using the High output V2 kit (Illumina). Read data was processed in BaseSpace. Reads were aligned to Homo sapiens genome (hg19) using STAR aligner with default settings. Differential transcript expression was determined using the Cufflinks Cuffdiff package. Go term enrichment analysis was conducted using PANTHER v11 using all genes identified as differentially expressed following either serum or Bmp4 treatment. For heat maps showing fold change in expression the FPKM values in each population were divided by the average FPKM values of untreated GBM2. To highlight differences in expression levels between serum and Bmp4 treated GBM2 cells the FPKM values in each sample were z-scored. Zscore=(FPKMObservation−FPKMAverage)/FPKMSD (FPKMObservation−FPKM value obtain through sequencing; FPKMAverage−average of all FPKM values in all samples for a certain gene; FPKMSD−standard deviation of FPKM values for a certain gene). Heat maps were generated using Microsoft Excel conditional formatting function.
Correlation of transcriptomic and image-based profiles: Euclidean distance between untreated, serum or Bmp4 treated GBM2 cells (triplicates for each) was calculated using either transcriptomic data (FPKM) or texture features. Pearson's correlation coefficient (R) was transformed to a t-value using the formula (t=R×SQRT(N−2)/SQRT(1−R2) where N is the number of samples, and R is Pearson correlation coefficient, and the p-value was calculated using Excel tdist(t) function. For compound prioritization, the Euclidean distance between compound treated and serum or Bmp4 treated GBM2 cells was calculated based on either transcriptomic data (FPKM) or image features. The average distance to both serum and Bmp4 treatments was normalized to the average distance of untreated cells to serum and Bmp4.
RNAseq and transcriptomic analysis: Total RNA was isolated from GBM2 cells using the RNeasy Kit (Qiagen), 0.25 μg total RNA was used to isolate mRNAs and for library preparation. Library preparation and sequencing were conducted by the SBP genomics core (Sanford-Burnham NCI Cancer Center Support Grant P30 CA030199). PolyA RNA was isolated using the NEBNext® Poly(A) mRNA Magnetic Isolation Module, and barcoded libraries were made using the NEBNext® Ultra II™ Directional RNA Library Prep Kit for Illumina® (NEB, Ipswich MA). Libraries were pooled and single-end sequenced (1×75) on the Illumina NextSeq 500 using the High-Output V2 kit (Illumina). Read data, processed in BaseSpace, were aligned to Homo sapiens genome (hg19) using STAR aligner with default settings. Differential transcript expression was determined using the Cufflinks Cuffdiff package. For heat maps showing fold change in expression, FPKM values in each HDACi-treated population were divided by the average FPKM values of DMSO-treated GBM2 and values shown as log 2 of the ratio. Go enrichment analysis was conducted using PANTHER v11 using all genes identified as differentially expressed following either serum or Bmp4 treatment. To highlight differences in expression levels between serum- and Bmp4-treated GBM2 cells, FPKM values in each sample were z-scored. Zscore=(FPKMObservation−FPKMAverage)/FPKMSD (FPKMObservation−FPKM value obtain through sequencing; FPKMAverage−average of all FPKM values in all samples for a certain gene; FPKMSD−standard deviation of FPKM values for a certain gene). […]

GBM cell lines = assay: Immunostaining of core transcription factors and GFAP after serum or Bmp4 treatment; format: cell-based, human
Description: Differentiation treatment: For TPC differentiation treatments cells were cultured in DMEM:F12 Neurobasal media (1:1), 1% B27 supplement, 10% BIT 9500, 1 mM glutamine supplemented with either Bmp4 (100 ng/ml; R&D Systems) or FBS (10%).
Cell staining: Cells were rinsed with PBS and fixed in 4% paraformaldehyde in PBS for 10 min at room temperature. After blocking with PBSAT (2% BSA and 0.5% Triton X-100 in PBS) for 1 h at room temperature, the cells were incubated overnight at 4° C. with primary antibodies diluted in PBSAT. The primary antibodies are listed in Table 2, and the appropriate fluorochrome-conjugated secondary antibodies were used at 1:500 dilution. Nuclear co-staining was performed by incubating cells with Hoechst-33342 nuclear dye.
Microscopy and image analysis: Unless stated otherwise, for MIEL analysis cells were imaged on an Opera QEHS high-content screening system (PerkinElmer) using ×40 water immersion objectives. Images collected on the Opera were analyzed using Acapella 2.6 (PerkinElmer). […] Features of nuclear morphology, fluorescence intensity inter-channel co-localization, and texture features (Image moments, Haralick, Threshold Adjacency Statistics) were calculated using custom algorithms (scripts available from www.andrewslab.ca). […] Between 3 and 8 fields per well were acquired and analyzed using Acapella 2.6 (PerkinElmer). […]

TPCs = assay: Growth rate of treated glioblastoma cells; settings: 3 days of serum or Bmp4 treatment

Molecule: COc1cccc2c1C(=O)c1c(O)c3c(c(O)c1C2=O)C[C@@](O)(C(=O)CO)C[C@@H]3O[C@H]1C[C@H](N)[C@H](O)[C@H](C)O1 [DOX, doxorubicin]
miBioAge distance (C57BL/6J male mice; 3-month, compared to 3-month control): increases
miBioAge signatures in CD3+ cells (C57BL/6J male mice; blood collected on day 20): trend shift
miBioAge signatures in PBMC (C57BL/6J male mice; blood collected on day 20): trend shift
miBioAge signatures in liver hepatocytes (C57BL/6J male mice; cells analyzed 21 days after treatment): towards the old age
VITA score [1]: trend for the increase; also recorded: increases

estimated concentrations reached following repeated administration [2]: ~10 µM
Molecule: Oc1ccc(O)cc1 [Hydroquinone]

estimated concentrations reached following repeated administration [2]: ~10 µM
Molecule: CC(=O)S[C@@H]1CC2=CC(=O)CC[C@]2(C)[C@H]2CC[C@@]3(C)[C@@H](CC[C@@]34CCC(=O)O4)[C@H]12 [spironolactone]

Molecule: CCCC(CCC)C(=O)O [valproic acid]
functional classification by discriminant analysis (MIEL) (GBM2 cells [3]; 10 μM, 24 hours, 85 compounds): active but were misclassified
epigenetic changes detected by MIEL (GBM2 cells [3]; 24-hour treatment, low concentrations (<30 μM)): detectable epigenetic changes
H3K27ac and H3K27me3 immunofluorescence intensity (H3K27ac and H3K27me3): no increase in histone acetylation or decrease in histone methylation
transcriptomic changes (genes altered vs DMSO) (GBM2 cells [4]; GBM2, 24 hours, valproic acid 15 μM): not reflected

Molecule: Bmp4: Bmp4 (100 ng/ml; R&D Systems), positive control inducing TPC differentiation
GFAP expression (GBM cell lines): increased
expression of transcription factors Sox2, Sall2, Brn2 and Olig2 (GBM cell lines; 3 days treatment, cell line dependent): down regulated; also recorded: downregulated
growth rate of TPCs (TPCs): reduced; also recorded: attenuate
expression of most genes of the transcriptomic stemness signature (GBM2 cells [4]; GBM2, 3 days treatment, vs untreated cells): reduced
